The values that follow come from patent US5103007A, “Lipids” (Takeda Chemical Industries, Ltd., priority 1988, dated 1992).

For data set [1], the system named is human nasopharynx cancer (KB cells). Nature of the data set: Inhibition of multiplication of human nasopharynx cancer (KB cells), MTT assay. Format: cell-based. The conditions noted are these: 72 hours. Here is the method: (§1) The effect (IC50) of the compounds obtained by Examples in inhibiting multiplication of human nasopharynx cancer (KB cells) and human colon adenocarcinoma (colon 205 cells) Each well of a 96-well microtiter plate was inoculated with 0.1 ml of human nasopharynx cancer (KB cells) (1×10^4 /ml) or human colon adenocarcinoma (colon 205 cells) (2×10^4 /ml), which was then subjected to cultivation by allowing to stand at 37° C. for 24 hours in 5% CO2. To the culture was added a 10% MEM solution (manufactured by Nissui Seiyaku or RPMI-1640), and cultivation was continued at 37° C. for 72 hours in 5% CO2. Then, the culture solution was removed with a micro-pipette. […] Incubation was conducted at 37° C for 4 hours, to which was then added 0.1 ml of a 10% SDS (Wako Pure Chemical Industries, Ltd.), and the incubation was continued at 37° C. for 24 hours.

For data set [2], the system named is human colon adenocarcinoma (colon 205 cells). Nature of the data set: Inhibition of multiplication of human colon adenocarcinoma (colon 205 cells), MTT assay. In kind it is cell-based. Particulars: 72 hours. Here is the method:
as §1

For data set [3], the system named is Sarcoma 180 cells. Nature of the data set: Antitumor effect against Sarcoma 180 cells in ICR mice. In kind it is in vivo, murine (ICR mice). The conditions noted are these: for Life-span prolongation ratio (T/C %): 0.33 mg/mouse i.p. 1 hour, 1 day and 2 days after inoculation, only related to mice which died; for Number of survivors/number of mice tested: 0.33 mg/mouse i.p. three times, on the 60th day. Here is the method: Antitumor effect of compounds of Examples against Sarcoma 180 cells
ICR mice (a group consisting of 5 mice) were inoculated intraperitoneally with 1×10^5 Sarcoma 180 cells per mouse. Then, 0.33 mg/mouse of a compound dissolved in physiological saline was intraperitoneally administered three times, i.e. 1 hour, 1 day and 2 days after the inoculation. Shown in Table 4 are the life-span prolongation ratio against the control group without treatment and the number of surviving mice on the 60th day after the initiation of the test.

Data set [4] can be described thus: Acute toxicity in CDF-1 female mice. In kind it is in vivo. The conditions noted are these: 50 mg/kg once i.p.; after 7 days. Here is the method: Acute toxicity of Compounds of Examples
CDF-1 female mice (5-week old: a group of consisting of 5 mice) were given once intraperitoneally 0.2 ml of a physiological saline solution of a compound of Example.

The test system of data set [5] is breast cancer cells MM46. Nature of the data set: Action against breast cancer cells MM46 in C3H mice. Format: in vivo, murine (C3H mice). The conditions noted are these: for Life-span prolongation ratio (T/C %): 0.20 mg/mouse once a day for 4 consecutive days, only related to mice which died; for No. of survivors/No. of mice tested: 0.20 mg/mouse once a day for 4 days, on the 60th day. Here is the method:
Action of the compounds obtained in Examples against breast cancer cells MM46
C3H mice (a group consisting of 5 mice) were inoculated intraperitoneally with 1×10^4 MM46 cells per mouse, and given 0.20 mg/mouse of compounds of Examples dissolved in physiological saline once a day for 4 consecutive days starting from the second day after the inoculation. Shown in Table 3 are the life-span prolongation ratio against the control group without treatment and the number of surviving mice on the 60th day after starting the test.

Values after ≈ are worked out from the molar mass of the structure shown. Bounds are passed on as bounds.

In turn, `CCCCCCCCCCCCCCCCCCOCC(C[S+]([O-])CCOCC[n+]1cccc(CCCO)c1)Oc1ncccn1.[Cl-]` (stereo not drawn) [Ex. 3, 3-(3-hydroxypropyl)-1-[2-[2-[3-octadecyloxy-2-(pyrimidin-2-yloxy)propylsulfinyl]ethoxy]-ethyl]pyridinium chloride] came in with an IC50 in data set [1] of 0.16 µg/mL. This molecule yielded an IC50 in data set [2] of 0.63 µg/mL. Further, in data set [3], the “Life-span prolongation ratio (T/C %)” value worked out at 223% and the “Number of survivors/number of mice tested” value was 2/5.

As to `CCCCCCCCCCCCCCCCCCOCC(C[S+]([O-])CCOCC[n+]1csc(CCO)c1C)Oc1ncccn1.[Cl-]` (stereo not drawn) [Ex. 6, 5-(2-hydroxyethyl)-4-methyl-3-[2-[2-[3-octadecyloxy-2-(pyrimidin-2-yloxy)propylsulfinyl]ethoxy]-ethyl]thiazolium chloride], the results for the IC50 in data set [1] and in data set [2] were 0.32 µg/mL and 0.63 µg/mL, respectively. Also, the “Life-span prolongation ratio (T/C %)” value in data set [3] is given as 213%. In data set [3], the “Number of survivors/number of mice tested” value is given as 1/5.

In the case of `CCCCCCCCCCCCCCCCCCOCC(CSCCOCC[n+]1ccn(CCCC(=O)[O-])c1)Oc1ncccn1` (stereo not drawn) [Ex. 11, 4-[3-[2-[2-[3-octadecyloxy-2-(pyrimidin-2-yloxy)propylthio]ethoxy]ethyl]imidazolio-1-yl]butyrate], the “No. of dead mice/No. of mice tested” value in data set [4] is on record as 0/5.

Take `CCCCCCCCCCCCCCCCCCOCC(CSCCCOCCCn1ccnc1)Oc1ncccn1` (stereo not drawn) [Ex. 12, N-[3-[3-[3-octadecyloxy-2-(pyrimidin-2-yloxy)propylthio]propoxy]propyl]imidazole]: the “No. of dead mice/No. of mice tested” value in data set [4] is on record as 0/5.

Turning to `CCCCCCCCCCCCCCCCCCOCC(CS(=O)(=O)CCOCC[n+]1ccsc1)Oc1ncccn1` (stereo not drawn) [Ex. 19, 2-[2-[3-octadecyloxy-2-(pyrimidin-2-yl-oxy)propylsulfonyl]ethoxy]ethylthiazolium chloride], in data set [5], the “Life-span prolongation ratio (T/C %)” value was 154% and the “No. of survivors/No. of mice tested” value is 2/5.

Turning to `CCCCCCCCCCCCCCCCCCOCC(CS(=O)(=O)CCOCC[N+](C)(C)C)Oc1ncccn1.[Cl-]` (stereo not drawn) [Ex. 21, N-[2-[2-[3-octadecyloxy-2-(pyrimidin-2-yloxy)propylsulfonyl]ethoxy]ethyl]-N,N,N-trimethylammonium chloride], the IC50 in data set [1] stood at 0.32 µg/mL. Moreover, in data set [5], the “Life-span prolongation ratio (T/C %)” value was 144% and the “No. of survivors/No. of mice tested” value is given as 2/5.

Regarding `CCCCCCCCCCCCCCCCCCOCC(CSCCOCC[n+]1ccn(CCC(C)(C)C(=O)OCC)c1)Oc1ncccn1` (stereo not drawn) [Ex. 26, 1-[(3-ethoxycarbonyl-3-methyl)butyl]-3-[2-[2-[3-octadecyloxy-2-(pyrimidin-2-yloxy)propylthio]-ethoxy]ethyl]imidazolium choride], the IC50 in data set [1] came out at 1.25 µg/mL; in data set [2] it was 0.63 µg/mL.

On to `O=C([O-])CCCn1cc[n+](CCOCCSCC(COCCCCCCCCCCCCC2CCCCC2)Oc2ncccn2)c1` (stereo not drawn) [Ex. 28], for which the IC50 in data set [1] was 1.25 µg/mL (≈ 1.89 µM); in data set [2] it was 5 µg/mL (≈ 7.56 µM).

Regarding `[Cl-].[O-][S+](CCOCC[n+]1ccccc1)CC(COCCCCCCCCCCCCC1CCCCC1)Oc1ncccn1` (stereo not drawn) [Ex. 29, 1-[2-[2-[3-(12-cyclohexyldodecyloxy)-2-(pyrimidin-2yloxy)propylsulfinyl]ethoxy]ethyl]pyridinium chloride], the IC50 in data set [1] is < 0.08 µg/mL; in data set [2], 0.63 µg/mL.

Take `CCCCCCCCCCCCCCCCCCOCC(C[S+]([O-])CCOCC[N+]1(C)CCCC1)Oc1ncccn1.[Cl-]` (stereo not drawn) [Ex. 30, N-methyl-N-[2-[2-[3-octadecyloxy-2-(pyrimidin-2-yloxy)propylsulfinyl]ethoxy]ethyl]pyrrolidinium chloride]: the IC50 came to 0.16 µg/mL in data set [1] and 0.32 µg/mL in data set [2].

For the molecule `CCCCCCCCCCCCCCCCCCOCC(CSCCOCC[n+]1ccccc1)Oc1ccncn1.[Cl-]` (stereo not drawn) [Ex. 32, N-[2-[2-[3-octadecyloxy-2-(pyrimidin-4-yloxy)propylthio]ethoxy]ethyl]pyridinium chloride], the half-inhibitory concentration (IC50) came out at 0.63 µg/mL in data set [1] and 1.25 µg/mL in data set [2].

Turning to `CCCCCCCCCCCCCCCCCCOCC(CSCCOCC[n+]1ccn(CCCCCC(=O)[O-])c1)Oc1ccncn1` (stereo not drawn) [Ex. 33, 6-[3-[2-[2-[3-octadecyloxy-2-(pyrimidin-4-yloxy)propylthio]ethoxy]ethyl]imidazolio-1-yl]hexanoate], the IC50 in data set [1] stood at 0.63 µg/mL (≈ 0.912 µM); in data set [2] it was 2.5 µg/mL (≈ 3.62 µM).

Consider `CCCCCCCCCCCCCCCCCCOCC(C[S+]([O-])CCOCC[n+]1ccccc1)Oc1ccncn1.[Cl-]` (stereo not drawn) [Ex. 34, N-[2-[2-[3-octadecyloxy-2-(pyrimidin-4-yloxy)propylsulfinyl]ethoxy]ethyl]pyridinium chloride], for which the IC50 in data set [1] amounted to 0.32 µg/mL; in data set [2] it was 0.63 µg/mL.

As to `CCCCCCCCCCCCCCCCCCOCC(C[S+]([O-])CCOCC[N+](C)(C)C)Oc1ccncn1.[Cl-]` (stereo not drawn) [Ex. 35, N-[2-[2-[3-octadecyloxy-2-(pyrimidin-4-yloxy)propylsulfinyl]ethoxy]ethyl]-N,N,N-trimethylammonium chloride], the IC50 in data set [1] was 0.16 µg/mL; in data set [2], 0.63 µg/mL.

Consider `CCCCCCCCCCCCCCCCCCOCC(CSCCOCC[n+]1cccc(CCCCC(=O)[O-])c1)Oc1ncccn1` (stereo not drawn) [Ex. 37, 5-[1-[2-[2-[3-octadecyloxy-2-(pyrimidin-2-yloxy)propylthio]ethoxy]ethyl]pyridinio-3-yl]pentanoate], for which the IC50 turned out to be 0.32 µg/mL (≈ 0.465 µM) in data set [1] and 5 µg/mL (≈ 7.27 µM) in data set [2].

Consider `CC(C)CCCC(C)CCCC(C)CCCC(C)CCOCC(CSCCOCC[n+]1ccn(CCCCCC(=O)[O-])c1)Oc1ncccn1` (stereo not drawn) [Ex. 38, 6-[3-[2-[2-[2-(pyrimidin-2-yloxy)-3-(3,7, 11,15-tetramethylhexadecyloxy)propylthio]ethoxy]ethyl]-imidazolio-1-yl)hexanoate], for which the 50% inhibitory concentration (IC50) came to 0.63 µg/mL (≈ 0.876 µM) in data set [1] and 2.5 µg/mL (≈ 3.48 µM) in data set [2].

Turning to `CC(C)CCCC(C)CCCC(C)CCCC(C)CCOCC(C[S+]([O-])CCOCC[n+]1ccccc1)Oc1ncccn1.[Cl-]` (stereo not drawn) [Ex. 39, N-[2-[2-[2-(pyrimidin-2-yloxy)-3-(3,7,11, 15-tetramethylhexadecyloxy)propylsulfinyl]ethoxy]ethyl]-pyridinium chloride], the IC50 in data set [1] was found to be 0.16 µg/mL; in data set [2] it was 0.63 µg/mL.

As for `CCCCCCCCCCCCCCCCCCOCC(CS(=O)(=O)CCCCCOCCCCC[n+]1ccccc1)Oc1ncccn1.[Cl-]` (stereo not drawn) [Ex. 42, N-[5-[5-[3-octadecyloxy-2-(pyrimidin-2-yloxy)propylsulfonyl]pentyloxy]pentyl]pyridinium chloride], the IC50 in data set [1] was determined as 0.32 µg/mL; in data set [2], 1.25 µg/mL.

For `CCCCCCCCCCCCCCCCCCOCC(CSCCOCC[N+](C)(C)C)OC` (stereo not drawn) [Ex. 43, N-[2-(2-methoxy-3-oxtadecyloxypropylthio)ethoxy]ethyl-N,N,N-trimethylammonium chloride], the IC50 amounted to 0.32 µg/mL in data set [1] and 1.25 µg/mL in data set [2].

For `CCCCCCCCCCCCCCCCCCOCC(C[S+]([O-])CCOCC[N+](C)(C)C)OC.[Cl-]` (stereo not drawn) [Ex. 44, N-[2-[2-(2-methoxy-3-octadecyloxypropylsulfinyl)ethoxy]ethyl]-N,N,N-trimethylammonium chloride], the IC50 is 0.16 µg/mL in data set [1] and 0.32 µg/mL in data set [2].

As for `CCCCCCCCCCCCCCCCCCOCC(CSCCOCC[n+]1ccn(CCCC(=O)[O-])c1)OC` (stereo not drawn) [Ex. 45, 4-[3-[2-[2(2-methoxy-3-octadecyloxypropylthio)ethoxy]ethyl]imidazolio-1-yl]butyrate], the IC50 in data set [1] worked out at 0.63 µg/mL (≈ 1.05 µM); in data set [2], 2.5 µg/mL (≈ 4.17 µM).

For `CCCCCCCCCCCCCCCCCCOCC(CSCCOCC[n+]1cccc(CCCCC(=O)[O-])c1)OC` (stereo not drawn) [Ex. 46, 5-[1-[2-[2-(2-methoxy-3-octadecyloxypropylthio)ethoxy]ethyl]pyridinio-3-yl]-pentanoate], the figures for the half-maximal inhibitory concentration (IC50) in data set [1] and in data set [2] were 0.32 µg/mL (≈ 0.513 µM) and 2.5 µg/mL (≈ 4.01 µM), respectively.

`CCCCCCCCCCCCCCCCCCOCC(CSCCOCCOCC[N+](C)(C)C)Oc1ncccn1` (stereo not drawn) [Ex. 47, N-[2-[2-[2-[3-octadecyloxy-2-(pyrimidin-2-yloxy)propylthio]ethoxy]ethoxy]ethyl]-N,N,N,trimethylammonium chloride]: the values for the IC50 in data set [1] and in data set [2] were 0.63 µg/mL and 1.25 µg/mL, respectively.

Take `CCCCCCCCCCCCCCCCCCOCC(C[S+]([O-])CCOCCOCC[N+](C)(C)C)Oc1ncccn1.[Cl-]` (stereo not drawn) [Ex. 48, N-[2-[2-[3-octadecyloxy-2-(pyrimidin-2-yloxy)propylsulfinyl]ethoxy]ethoxy]ethyl-N,N,N-trimethylammonium chloride]: the results for the IC50 in data set [1] and in data set [2] were 0.16 µg/mL and 0.63 µg/mL, respectively.
